“Also recorded” adds a separate entry of the source.
Assays:
VSMCs [1] = assay: Oxidative stress in VSMCs (DCFDA fluorescence); assay type: cell-based; details: 10 μM, fluorescence measured for 6 hours
Protocol: (§1) It is known that the level of reactive oxygen species in cells can be measured by measuring the conversion of 2′,7′—dichlorofluorescein diacetate (DCFDA) to the fluorescent dye 2′,7′-dichlorofluorescein (DCF). The fluorescence generated by cells subjected to DCFDA is directly proportional to the amount of oxidized DCFDA to DCF.
To perform the study, VSMCs (10,000 cells/well) were plated in a 96-well plate and left to adhere overnight. Next, cells were incubated for 1 hour with 20 μM DCFDA. The medium was then changed to medium supplemented with 10 μM vitamin K2 (MK-7). To visualize intracellular oxidative stress, fluorescence was measured for 6 hours and fluorescence intensity was normalized for cell count.

VSMCs [2] = assay: Warfarin-induced oxidative stress in VSMCs, effect of vitamin K2 (DCFDA); assay type: cell-based; details: 5 hours incubation
Protocol: as §1
This study was performed to determine if vitamin K2 (MK-7) reduces warfarin-induced oxidative stress. To perform the study, VSMCs (10,000 cells/well) were plated in a 96-well plate and left to adhere overnight. Next, cells were incubated for 24 hours with 100 μM warfarin. The next day, […] DCFDA was added to the cells for 1 hour. The cells were then incubated for 5 hours with normal medium (baseline), vitamin K2 (MK-7), or warfarin. Fluorescence was measured and fluorescence intensity was normalized for cell count.

VSMCs [3] = assay: ATP increase, 24 h incubation (luminescence); assay type: cell-based; details: 10 μM, p=0.014 for MK-7
Protocol: This study was performed to determine if vitamin K2 (MK-7) affects ATP generation. ATP is generated via glycolysis in the cytoplasm and via both the Krebs-cycle and oxidative phosphorylation in the mitochondria. ATP generation via glycolysis delivers only 2 ATP, whereas ATP generation in the mitochondria generates some 32 ATP.
To perform this study, VSCMs (5000 cells/well) were plated in 96-well plates and left to adhere overnight. Next, cells were incubated for 24 hours with either vehicle, vitamin K2 (MK-7) (10 μM), or UQ10 (10 μM). Hoechst was added to correct for cell number (1 μg/mL). Next, ATP was measured using mammalian lysis buffer for 5 minutes after which 50 μL ATP substrate solution was added to the wells and incubated for 10 minutes in a dark environment. Finally, the medium was transferred to a white plate to measure luminescence

VSMCs [4] = assay: Vitamin K2 (MK-7) effect on ATP over time; assay type: cell-based; details: 10 μM, indicated time points
Protocol: This study was performed to investigate the effect of vitamin K2 (MK-7) on ATP over time. It is known that all cells, including VSMCs, proliferate. The term cell growth is used in the contexts of biological cell development and cell division (reproduction). When used in the context of cell division, it refers to growth of cell populations, where a cell, known as the “mother cell,” grows and divides to produce two “daughter cells” (M phase). When used in the context of cell development, the term refers to increase in cytoplasmic and organelle volume (G1 phase), as well as increase in genetic material (G2 phase) following the replication during S phase. When a cell is quiescent, this phase is called G0. Cell populations go through a particular type of exponential growth called doubling. Each generation of cells should be twice as numerous as the previous generation. However, the number of generations only gives a maximum figure as not all cells survive in each generation.
To perform this study, first, VSCMs (5000 cells/well) were plated in 96-well plates and left to adhere overnight. […] Next, ATP was measured using mammalian lysis buffer for 5 minutes, after which 50 μL ATP substrate solution was added to the wells and incubated for 10 minutes in a dark environment. Finally, medium was transferred to a white plate to measure luminescence.

Sprague-Dawley rats = assay: T-TAS thrombus formation in whole blood of treated Sprague-Dawley rats; assay type: in vivo, rat; details: added to dabigatran and to rivaroxaban
Protocol: This experiment was conducted in order to evaluate the effects of vitamin K2 (MK-7) on the anticoagulant activity of the new oral anticoagulants (NOAC) rivaroxaban and dabigatran using the T-TAS Total Thrombus-formation Analysis System. The T-TAS Total Thrombus-formation Analysis System is a microchip-based flow chamber system capable of evaluating whole-blood thrombogenicity. It is a useful tool in monitoring the efficacy of anticoagulants on thrombus formation and predicting the risk of bleeding complications. To perform the study, 45 wild-type male Sprague-Dawley and 45 transgenic male Ren-2 rats [TGR(mREN-2)27] at the age of 10-11 weeks at the beginning of the treatment period were purchased from animal facility IKEM-CEM Institute of Clinical and Experimental Medicine (Prague, Czech Republic). All animals in the experiment were housed in individually ventilated cages (2-3 rats per cage) and kept in the animal rooms of JCET at a relative humidity of 55±10%, a temperature of 22±2 ° C., and a light cycle of 7 AM to 7 PM. The rats had free access to food and water. After delivery, animals were randomly divided into 10 experimental groups (5 or 10 rats per group), as indicated below in Table 1. Four days before the start of the treatment, the first part of animals' body weight and food intake was measured in selected representative three cages (rats n=9) to calculate the appropriate amount of tested compounds required for addition to the diet to obtain the dosing indicated in Table 1. It was estimated that food intake was approximately 30 g of chow per rat per day. […] The body mass of the rats was measured at the beginning and at the end of treatment. At the beginning and at the end of treatment, the food intake per day was measured in representative group of animals to monitor the daily dosing of tested compounds (per kg of body mass). The thrombus formation in vitro was measured in whole blood using a microchip-based flow chamber system according to manufacturers' protocol (Total Thrombus-formation Analyser System, T-TAS; Fujimori Kogyo Co., Ltd., Tokyo, Japan). […]

SMILES: CC(C)=CCC/C(C)=C/CC/C(C)=C/CC/C(C)=C/CC/C(C)=C/CC/C(C)=C/CC/C(C)=C/CC1=C(C)C(=O)c2ccccc2C1=O [vitamin K2 (MK-7)]
- oxidative stress in VSMCs (DCF fluorescence) (VSMCs [1]): clearly reduced the oxidative stress
- warfarin-induced oxidative stress in VSMCs (VSMCs [2]; after 24 hours 100 μM warfarin): counteracted the warfarin-induced oxidative stress; also recorded: counteracts intracellular oxidative stress
- normal oxidative stress in VSMCs (VSMCs [2]; normal conditions): reduced not only normal oxidative stress; also recorded: counteracts intracellular oxidative stress
- ATP production in VSMCs compared to the vehicle (VSMCs [3]): increased ATP production in VSMCs significantly
- ATP production in VSMCs over time (VSMCs [4]): stimulated ATP production in VSMCs
- formation of a clot (AUC) on addition of vitamin K2 (MK-7) (Sprague-Dawley rats): did not prevent the formation of a clot
- increase of occlusion Time (OT) on addition of vitamin K2 (MK-7) (Sprague-Dawley rats): 5-7%

— patent US20220160652A1, “USE OF VITAMIN K IN COMBINATION WITH ANTICOAGULANTS” (KAYDENCE PHARMA AS, priority 2019, published 2022)
